Assay results reported in patent US6608032B1, “Medicinal compositions” (Takara Shuzo Co., Ltd., priority 1999, dated 2003).
Like-named read-outs stand apart in the source and are kept apart here.

Tests used:
[1] = test system: HL-60 cells; test: Proliferation of HL-60 cells with or without hydroxyurea G1 arrest, WST-1; assay type: cell-based; conditions: read-out: IC50 (concentration at which 50% of the proliferation is inhibited)
Protocol: HL-60 cells (ATCC CCL-240) were suspended in RPMI 1640 medium (Bio Whittaker, 12-702F) containing 10% fetal calf serum (Gibco) and […] at a concentration of 5×10^5 cells/ml. 20 ml of the suspension was added to a 10-cm Petri dish. The dish was incubated at 37° C. overnight in the presence of 5% CO2 to make the cells arrest at G1 phase. The cells were collected by centrifugation and resuspended in RPMI 1640 medium containing 10% fetal calf serum (Gibco) and 100 μM hydroxyurea at a concentration of 5×10^5 cells/ml. 5 ml of the suspension was added to each well of a 6-well microtiter plate. On the other hand, as cells without the treatment with hydroxyurea, HL-60 cells were suspended in RPMI 1640 medium containing 10% fetal calf serum (Gibco) at a concentration of 1×10^5 cells/ml. 5 ml of the suspension was added to each well of a 6-well microtiter plate. 50 μl of a solution containing agarobiose at a concentration of 80, 60, 40 or 20 mM in water, or 50 μl of a solution containing the agarohexaose at a concentration of 80, 60, 40 or 20 mM in water was added to the well containing the cells treated with hydroxyurea. 50 μl of a solution containing agarobiose at a concentration of 40, 30, 20 or 10 mM in water, or 50 μl of a solution containing agarohexaose at a concentration of 40, 30, 20 or 10 mM in water was added to the well containing the cells without the treatment with hydroxyurea. The plate was incubated for additional 48 hours. Cells collected by centrifuging the culture were suspended in 5 ml of fresh RPMI 1640 medium containing 10% fetal calf serum (Gibco). 100 μl of the suspension was used for measuring the viable cell number using Premix WST-1 Cell Proliferation Assay System (Takara Shuzo, MK400).

[2] = test system: enzymes involved in the synthesis of prostaglandin E2 from arachidonic acid; test: Prostaglandin E2 generation from arachidonic acid, sample added directly to crude enzyme fraction; assay type: biochemical; conditions: 1 μL of 100 mM agarobiose, 100 mM agarohexaose, 10 mM DGE or 13 mM nimesulide added to 100 μL crude enzyme fraction; FIG. 15
Protocol: 2.5 μL of 200 mM aqueous solution of glutathione, 2.5 μL of a suspension containing L-adrenaline at a concentration of 200 mM in water, and 1 μL of 100 mM aqueous solution of agarobiose, 100 mM aqueous solution of agarohexaose or 10 mM aqueous solution of DGE as a sample were added to 100 μL of the control sample from the crude enzyme fraction prepared in Example 15. 1 μL of water was added as a negative control. 1 μL of 13 mM nimesulide (Cayman, 70640) solution was added as a positive control. 1 μL of 3 mM arachidonic acid solution was then added to start the reaction. The mixture was reacted at 37° C. for 5 minutes. The reaction was stopped by heating at 100° C. for 2 minutes. The content of prostaglandin E2 in the reaction mixture was measured using Prostaglandin E2 ELISA Kit.

[3] = test system: RAW264.7 cells; test: LPS-induced IL-10 production in RAW264.7 cells; assay type: cell-based; conditions: 5 μl of 10 mM solution per 0.5 ml, 5 hours before LPS; 18 hours; FIG. 18
Protocol: RAW264.7 cells (ATCC TIB 71) were suspended in Dulbecco's modified Eagle's medium (Bio Whittaker, 12-604F) containing 10% fetal calf serum (Gibco) at a concentration of 3×10^5 cells/ml. 0.5 ml of the suspension was added to each well of a 48-well microtiter plate and the plate was incubated at 37° C. overnight in the presence of 5% CO2. 5 μl of a solution containing agarobiose or agarohexaose in Referential Example 1 at a concentration of 10 mM in water was added to the well. After incubation for additional 5 hours, 5 μl of a solution of lipopolysaccharide (LPS, Sigma, L-2012) at a concentration of 100 μg/ml in water was added the well. After incubation for 18 hours, a culture supernatant was collected. The content of interleukin 10 (IL-10) in the culture supernatant was measured using enzyme immuno sandwich assay. As a control, a group to which the sample or the LPS aqueous solution was not added was provided. All of the measurements were carried out in duplicate.

IC50 ([1]; Cells treated with hydroxyurea (arrested at G1 phase), 48 hours) | IC50 ([1]; Cells without treatment with hydroxyurea, 48 hours) | Structure (SMILES) | IC50 ([1]; Homo sapiens, HL-60, 48 h, Cells treated with hydroxyurea (arrested at G1 phase)) | IC50 ([1]; Homo sapiens, HL-60, 48 h, Cells without treatment with hydroxyurea) | production of prostaglandin E2 from arachidonic acid [2] | LPS-induced IL-10 production [3]
– | – | OCC1OC(OC2C3COC2C(O)C(OC2C(O)C(CO)OC(OC4C5COC4C(O)C(OC4C(O)C(CO)OC(OC6C7COC6C(O)C(O)O7)C4O)O5)C2O)O3)C(O)C(O)C1O (centres unmarked) [Agarohexaose, agarohexaose] | 383 µM | 205 µM | not suppressed | inhibition of LPS-induced IL-10 production
401 µM | 211 µM | OC[C@H]1O[C@@H](O[C@H]2[C@H]3OC[C@@H]2OC(O)[C@H]3O)[C@H](O)[C@@H](O)[C@H]1O (mixture of isomers) [Agarobiose, agarobiose] | – | – | not suppressed | inhibition of LPS-induced IL-10 production
